From patent publication US10588317B2, “Isoxazoline-substituted benzamides and analogues as insecticides” (priority 2015, dated 2020)

How the values were obtained:
Format in all cases: in vivo
[1] = test system: Tetranychus urticae; experiment: Tetranychus urticae (two-spotted spider mite): feeding/contact activity; conditions: 192 h, application rate 200 ppm, mixed population (mobile stages), 8 days after infestation, read-out: mortality
Description: Bean leaf discs on agar in 24-well microtiter plates were sprayed with aqueous test solutions prepared from 10'000 ppm DMSO stock solutions. After drying the leaf discs were infested with a mite population of mixed ages. The samples were assessed for mortality on mixed population (mobile stages) 8 days after infestation.

[2] = test system: Spodoptera littoralis; experiment: Spodoptera littoralis (Egyptian cotton leaf worm), sprayed cotton leaf discs; conditions: foliar, 72 h, application rate 200 ppm, L1 larvae, 3 days after infestation, read-out: control (mortality, anti-feeding effect, growth inhibition)
Outline: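 Five first-instar larvae placed on dried cotton leaf discs (on agar) previously sprayed with aqueous dilutions of 10'000 ppm DMSO stocks. Scored at 3 days against untreated discs for mortality, feeding inhibition and growth inhibition; any category above untreated counts as control.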

[3] = test system: Plutella xylostella; experiment: Plutella xylostella (diamond back moth), artificial diet; conditions: 120 h, application rate 200 ppm, L2 larvae, 5 days after infestation, read-out: effect in at least one of the two categories (mortality or growth inhibition)
Outline: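 L2 larvae (10-15 per well) fed on compound-treated, dried artificial diet; test solutions diluted in water from 10'000 ppm DMSO stocks. Readout 5 days post-infestation as mortality or growth inhibition versus untreated diet, with at least 80% effect at 200 ppm as threshold.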

[4] = test system: Euschistus heros; experiment: Euschistus heros (neotropical brown stink bug), sprayed soybean leaves; conditions: 120 h, application rate 200 ppm, N2 nymphs, 5 days after infestation, read-out: effect in at least one of the two categories (mortality or growth inhibition)
Outline: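 Scored 5 days post-infestation versus untreated controls, for both mortality and growth inhibition: N2 nymphs placed on agar-mounted soybean leaves previously sprayed at 200 ppm with aqueous test solutions from DMSO stocks and left to dry.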

[5] = test system: Spodoptera littoralis; experiment: Spodoptera littoralis (Egyptian cotton leaf worm), uptake by lettuce roots from agar; conditions: 144 h, read-out: effect in at least one of the three categories (mortality, anti-feeding, or growth inhibition)
Outline: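 Systemic test: Spodoptera eggs placed on lettuce leaves from seedlings raised 7 days on agar containing the compound (diluted from 10'000 ppm DMSO stock). Six days after infestation, larvae scored against untreated controls for mortality, feeding deterrence and growth inhibition.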

[6] = test system: Diabrotica balteata; experiment: Diabrotica balteata (corn root worm), sprayed maize sprouts; conditions: 96 h, application rate 200 ppm, L2 larvae, 4 days after infestation, read-out: effect in at least one of the two categories (mortality or growth inhibition)
Outline: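 Read-out at 4 days post-infestation: mortality and growth inhibition relative to untreated samples. Test solutions (200 ppm, from DMSO stocks) were sprayed onto agar-held maize sprouts, which after drying received 6–10 L2 larvae per well.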

[7] = test system: Thrips tabaci; experiment: Thrips tabaci (onion thrips): feeding/contact activity; conditions: 144 h, application rate 200 ppm, Thrips population of mixed ages, 6 days after infestation, read-out: mortality
Description: Sunflower leaf discs were placed on agar in 24-well microtiter plates and sprayed with aqueous test solutions prepared from 10'000 ppm DMSO stock solutions. After drying the leaf discs were infested with a Thrips population of mixed ages. The samples were assessed for mortality 6 days after infestation.

[8] = test system: Myzus persicae; experiment: Myzus persicae (green peach aphid): feeding/contact activity; conditions: 144 h, application rate 200 ppm, aphid population of mixed ages, 6 days after infestation, read-out: mortality
Description: Sunflower leaf discs were placed onto agar in a 24-well microtiter plate and sprayed with aqueous test solutions prepared from 10'000 ppm DMSO stock solutions. After drying, the leaf discs were infested with an aphid population of mixed ages. The samples were assessed for mortality 6 days after infestation.

Cc1cc(C2=NO[C@@](c3cc(Cl)cc(Cl)c3)(C(F)(F)F)C2)ccc1C(=O)N[C@H]1CON(S(=O)(=O)NC2CC2)C1 [Compound A155]
≥ 80%: mortality at 200 ppm [1] | mortality at 200 ppm [2] | percent effect (mortality or growth inhibition) at 200 ppm [3] | percent effect (mortality or growth inhibition) at 200 ppm [4] | percent control (mortality, anti-feedant effect or growth inhibition) at 12.5 ppm [5] | percent effect (mortality or growth inhibition) at 200 ppm [6] | mortality at 200 ppm [7] | mortality at 200 ppm [8]

CNS(=O)(=O)N1C[C@@H](NC(=O)c2ccc(C3=NO[C@@](c4cc(Cl)c(F)c(Cl)c4)(C(F)(F)F)C3)cc2C)CO1 [Compound A137, 4-[(5S)-5-(3,5-dichloro-4-fluoro-phenyl)-5-(trifluoromethyl)-4H-isoxazol-3-yl]-2-methyl-N-[(4R)-2-(methylsulfamoyl)isoxazolidin-4-yl]benzamide]
≥ 80%: mortality at 200 ppm [1] | mortality at 200 ppm [2] | percent effect (mortality or growth inhibition) at 200 ppm [3] | percent effect (mortality or growth inhibition) at 200 ppm [4] | percent control (mortality, anti-feedant effect or growth inhibition) at 12.5 ppm [5] | percent effect (mortality or growth inhibition) at 200 ppm [6] | mortality at 200 ppm [7] | mortality at 200 ppm [8]

Cc1cc(C2=NO[C@@](c3cc(Cl)c(F)c(Cl)c3)(C(F)(F)F)C2)ccc1C(=O)NC1CON(S(=O)(=O)C2CC2)C1 (stereo partly drawn) [Compound A6]
≥ 80%: mortality at 200 ppm [1] | mortality at 200 ppm [2] | percent effect (mortality or growth inhibition) at 200 ppm [3] | percent effect (mortality or growth inhibition) at 200 ppm [4] | percent control (mortality, anti-feedant effect or growth inhibition) at 12.5 ppm [5] | percent effect (mortality or growth inhibition) at 200 ppm [6] | mortality at 200 ppm [7] | mortality at 200 ppm [8]

COCCN(C)S(=O)(=O)N1CC(NC(=O)c2ccc(C3=NO[C@@](c4cc(Cl)c(Cl)c(Cl)c4)(C(F)(F)F)C3)cc2C)CO1 (stereo partly drawn) [Compound A90, N-[2-[2-methoxyethyl(methyl)sulfamoyl]isoxazolidin-4-yl]-2-methyl-4-[(5S)-5-(3,4,5-trichlorophenyl)-5-(trifluoromethyl)-4H-isoxazol-3-yl]benzamide]
≥ 80%: mortality at 200 ppm [1] | mortality at 200 ppm [2] | percent effect (mortality or growth inhibition) at 200 ppm [3] | percent effect (mortality or growth inhibition) at 200 ppm [4] | percent control (mortality, anti-feedant effect or growth inhibition) at 12.5 ppm [5] | percent effect (mortality or growth inhibition) at 200 ppm [6] | mortality at 200 ppm [7] | mortality at 200 ppm [8]

C=Cc1cc(C2=NOC(c3cc(Cl)cc(Cl)c3)(C(F)(F)F)C2)ccc1C(=O)NC1CON(S(C)(=O)=O)C1 (stereo not drawn) [Compound A65]
≥ 80%: mortality at 200 ppm [1] | mortality at 200 ppm [2] | percent effect (mortality or growth inhibition) at 200 ppm [3] | percent effect (mortality or growth inhibition) at 200 ppm [4] | percent control (mortality, anti-feedant effect or growth inhibition) at 12.5 ppm [5] | percent effect (mortality or growth inhibition) at 200 ppm [6] | mortality at 200 ppm [7] | mortality at 200 ppm [8]

Cc1cc(C2=NO[C@@](c3cc(Cl)cc(C(F)(F)F)c3)(C(F)(F)F)C2)ccc1C(=O)NC1CON(S(C)(=O)=O)C1 (stereo partly drawn) [Compound A20]
≥ 80%: mortality at 200 ppm [1] | mortality at 200 ppm [2] | percent effect (mortality or growth inhibition) at 200 ppm [3] | percent effect (mortality or growth inhibition) at 200 ppm [4] | percent control (mortality, anti-feedant effect or growth inhibition) at 12.5 ppm [5] | percent effect (mortality or growth inhibition) at 200 ppm [6] | mortality at 200 ppm [7] | mortality at 200 ppm [8]

Cc1cc(C2=NO[C@@](c3cc(Cl)c(F)c(Cl)c3)(C(F)(F)F)C2)ccc1C(=O)NC1CON(S(=O)(=O)N(C)C(=O)c2cccnc2)C1 (stereo partly drawn) [Compound A78]
≥ 80%: mortality at 200 ppm [1] | mortality at 200 ppm [2] | percent effect (mortality or growth inhibition) at 200 ppm [3] | percent effect (mortality or growth inhibition) at 200 ppm [4] | percent effect (mortality, anti-feeding or growth inhibition) at 12.5 ppm ([5]; test rate 12.5 ppm, eggs, 6 days after infestation) | percent effect (mortality or growth inhibition) at 200 ppm [6] | mortality at 200 ppm [7] | mortality at 200 ppm [8]

Cc1cc(C2=NO[C@@](c3cc(Cl)cc(Cl)c3)(C(F)(F)F)C2)ccc1C(=O)NC1CON(S(C)(=O)=O)C1 (stereo partly drawn) [Compound A40]
≥ 80%: mortality at 200 ppm [1] | mortality at 200 ppm [2] | percent effect (mortality or growth inhibition) at 200 ppm [3] | percent effect (mortality or growth inhibition) at 200 ppm [4] | percent control (mortality, anti-feedant effect or growth inhibition) at 12.5 ppm [5] | percent effect (mortality or growth inhibition) at 200 ppm [6] | mortality at 200 ppm [7] | mortality at 200 ppm [8]

CN(C)S(=O)(=O)N1C[C@@H](NC(=O)c2ccc(C3=NO[C@@](c4cc(Cl)cc(C(F)(F)F)c4)(C(F)(F)F)C3)cc2Cl)CO1 [Compound A108]
≥ 80%: mortality at 200 ppm [1] | mortality at 200 ppm [2] | percent effect (mortality or growth inhibition) at 200 ppm [3] | percent effect (mortality or growth inhibition) at 200 ppm [4] | percent control (mortality, anti-feedant effect or growth inhibition) at 12.5 ppm [5] | percent effect (mortality or growth inhibition) at 200 ppm [6] | mortality at 200 ppm [7] | mortality at 200 ppm [8]

Cc1cc(C2=NO[C@@](c3cc(Cl)c(F)c(Cl)c3)(C(F)(F)F)C2)ccc1C(=O)NC1CON(S(=O)(=O)CCC(F)(F)F)C1 (stereo partly drawn) [Compound A11]
≥ 80%: mortality at 200 ppm [1] | mortality at 200 ppm [2] | percent effect (mortality or growth inhibition) at 200 ppm [3] | percent effect (mortality or growth inhibition) at 200 ppm [4] | percent control (mortality, anti-feedant effect or growth inhibition) at 12.5 ppm [5] | percent effect (mortality or growth inhibition) at 200 ppm [6] | mortality at 200 ppm [7] | mortality at 200 ppm [8]

Cc1cc(C2=NOC(c3cc(Cl)c(Br)c(Cl)c3)(C(F)(F)F)C2)ccc1C(=O)NC1CON(S(C)(=O)=O)C1 (stereo not drawn) [Compound A45]
≥ 80%: mortality at 200 ppm [1] | mortality at 200 ppm [2] | percent effect (mortality or growth inhibition) at 200 ppm [3] | percent effect (mortality or growth inhibition) at 200 ppm [4] | percent control (mortality, anti-feedant effect or growth inhibition) at 12.5 ppm [5] | percent effect (mortality or growth inhibition) at 200 ppm [6] | mortality at 200 ppm [7] | mortality at 200 ppm [8]

Cc1cc(C2=NO[C@@](c3cc(Cl)c(Cl)c(Cl)c3)(C(F)(F)F)C2)ccc1C(=O)N[C@@H]1CON(S(=O)(=O)N(C)C)C1 (single isomer, unassigned) [Compound A112]
≥ 80%: mortality at 200 ppm [1] | mortality at 200 ppm [2] | percent effect (mortality or growth inhibition) at 200 ppm [3] | percent effect (mortality or growth inhibition) at 200 ppm [4] | percent control (mortality, anti-feedant effect or growth inhibition) at 12.5 ppm [5] | percent effect (mortality or growth inhibition) at 200 ppm [6] | mortality at 200 ppm [7] | mortality at 200 ppm [8]
